Values quoted from earlier work, collected in patent US9023888B2, “Composition of monoterpenoids having bactericidal properties” (priority 2011, dated 2015).

How the values were obtained:
E. coli = conditions: for E. coli MBC (v/v %) / E. coli MBC ppm / E. coli MIC (v/v %) / E. coli MIC ppm: broth dilution
Staph. aureus = conditions: broth dilution

Structure (SMILES)	antibacterial activity (summary of Table 2 in words) (E. coli; E. coli and Staph. aureus data of Table 2)	E. coli MBC (v/v %) (E. coli)	E. coli MBC ppm (E. coli)	E. coli MIC (v/v %) (E. coli)	E. coli MIC ppm (E. coli)	Staph. aureus MBC (v/v %) (Staph. aureus)	Staph. aureus MBC ppm (Staph. aureus)	Staph. aureus MIC (v/v %) (Staph. aureus)	Staph. aureus MIC ppm (Staph. aureus)
Cc1ccc(C(C)C)cc1 [p-cymene]	no effect at all	>8.0 v/v %	No level	>8.0 v/v %	No level	>8.0 v/v %	No level	>8.0 v/v %	No level
CC1=CCC(C(C)(C)O)CC1 (centres unmarked) [∝-terpineol]		0.06 v/v %	600 ppm	0.06 v/v %	600 ppm	0.25 v/v %	2500 ppm	0.25 v/v %	2500 ppm
